# pKd: −log10 of the molar value. Where “and” joins values, the source holds several entries; their conditions need not be identical. Identical values can stand only once. Entries after “also recorded” stand apart in the source; their conditions may differ.
# Columns and labels:
# [1] = target: T1, Aβ42 (Homo sapiens, UniProt P05067); test: Lipid binding assay: Aβ42-FAM binding to plate-bound amine-containing lipids
# T1 construct: SensoLyte Fluorescent β-Amyloid1-42 Sampler Kit, Anaspec; purchased Anaspec
# From the text: Maleic Anhydride Activated plates (Pierce Amine-binding, 96-well plates, Thermo Scientific) were washed in wash buffer (PBS: Phosphate buffered saline, 0.15 M sodium chloride, pH 7.2 containing 0.05% Tween-20 Detergent, PBST, Thermo Scientific) 4 times to activate reactive maleic anhydride functional group. Amine containing lipids were PE containing docosahexaenoyl (22:6) and stearoyl (18:0) acyl chains (22:6/18:0 PE) or two stearoyl acyl chains (di18:0 PE) were from Avanti Polar Lipids. 22:6/18:0 PE was obtained in chloroform, dried down and solubilized at 200 pmol/μL in 1% n-octylglucoside (NOG, Santa Cruz) in PBS and sonicated for […]. di18:0 PE was obtained as a powder, solubilized at 200 pmol/μl in 1% NOG and bath sonicated for 5 minutes. Lipids were incubated at a volume of 100 μL in activated maleic anhydride plates at increasing concentration at 4° C. in PBS/1% NOG. After incubation, lipids were removed and SuperBlock Blocking Buffer/PBS (Thermo) was added at a volume of […] for 1 hour at room temperature. Plates were then washed 4 times with PBST (Thermo Scientific). Fluorescently labeled amyloid β-peptide (SensoLyte Fluorescent β-Amyloid1-42 Sampler Kit, Anaspec) was prepared with […], Component B, Solvent for β-amyloid (Anaspec) as per the commercial protocol and then diluted in deionized water to a concentration of 100 μM. […] Plates were then washed 4 times in PBST and fluorescence was detected using Tecan Infinite 200 at wavelengths 494/521 (excitation, emission) using the Optimal Gain setting.
# Assays were done in triplicate wells and reported as mean+/−standard error. Binding kinetics and best fit curve fitting were accomplished using Prism Graphpad software.
# Lipid containing long chain polyunsaturated fatty acid 22:6, docosahexaenoic acid (DHA) and an amine containing headgroup, phosphatidylethanoloamine (PE) was bound to maleic anhydride activated plates which bind to free primary amine functional groups at neutral and alkaline pH. […] Specific binding was calculated by subtracting background binding of di18:0 PE.
# [2] = test system: APPsw+ mice; test: Novel object recognition (NOR) training and testing, activity and exploration; format: in vivo
# Experimental: FIGS. 6A-6B. 30 days treatment with escalating dose SDPC. (A) Mice were placed in a box with two identical objects for 10 minutes on the training day 1. […] One object was replaced with a novel object for testing (NOD index). The same data is shown to scale in FIG. 6B (Testing (immediate)). Twenty-four hours later (Testing (24 hours)), mice were placed in the same context with one of the original identical objects (Familiar) and a second novel object (Novel). The time spent with each object was recorded. (B) For testing, novel object discrimination (NOD index) is assessed using the equation [(time novel)/(time familiar+time novel)]. NOD index of 0.5 represents equal time with each object. NOD>0.5 represents more time spent with novel object. Standard error is shown for means of Saline treated APPsw+(control) (n=4); SDPC treated APPsw+ (n=5) and wild type receiving no treatment (n=4). Significance was determined for […] using Student's t-test. SDPC was obtained from Avanti Polar Lipids (850472C) in chloroform, dried under vacuum conditions and resuspended in 0.9% saline (0.9% sodium chloride injection, USP, NDC 0409-7983-61, Hospira) containing 0.2% (weight:volume) methyl cellulose (average Mn 40,000, viscosity: 400 cP, CAS 9004-67-5, Sigma-Aldrich 274429) to aid in solubilization. A control solution of 0.9% saline containing 0.2% methyl cellulose was prepared at the same time without SDPC. A concentration of 3 mg/ml was used for doses 1-15 and 12 mg/ml was used for doses 16-18 (FIG. 3). Brief (3-5 minutes) bath sonication was used to improve solubility of 12 mg/ml concentration. Mice were treated for 10 days at a low dose of SDPC intranasally administered 2.5 uL each nostril (5 μL total dose) for 0.5 mg/kg every other day assuming average mouse weight of 30 g (0.03 kg) (FIG. 3). After 10 days, dose was escalated to 2 mg/kg every other day for an additional 19 days (total treatment time […]). Doses 16-18 were administered daily. Non-invasive behavioral testing using novel object recognition (118) and Nesting behavior (114) were used to assess behavioral function. Deficits were expected in APPsw+ (Tg) mice and compared to wild type littermates of the same age (13-14 months). APPsw+ mice were treated (Tx) with either control solution of 0.9% saline containing 0.2% methyl cellulose [Saline] or SDPC in 0.9% saline containing 0.2% methyl cellulose [SDPC]. […] Significant changes were seen using Student's t-test comparing SDPC and wild type (non-treated) [WT Ntx] and comparing saline and WT Ntx, but not when comparing SDPC and saline groups likely due to small sample size (n=4-5).
# [3] = test system: APPsw+ mice; test: Nesting behavior after intranasal treatment; format: in vivo; settings: 10 days intranasal low dose 0.5 mg/kg every other day, vs saline treated APPsw+, FIG. 4A
# Experimental: SDPC was obtained from Avanti Polar Lipids (850472C) in chloroform, dried under vacuum conditions and resuspended in 0.9% saline (0.9% sodium chloride injection, USP, NDC 0409-7983-61, Hospira) containing 0.2% (weight:volume) methyl cellulose (average Mn 40,000, viscosity: 400 cP, CAS 9004-67-5, Sigma-Aldrich 274429) to aid in solubilization. A control solution of 0.9% saline containing 0.2% methyl cellulose was prepared at the same time without SDPC. A concentration of 3 mg/ml was used for doses 1-15 and 12 mg/ml was used for doses 16-18 (FIG. 3). Brief (3-5 minutes) bath sonication was used to improve solubility of 12 mg/ml concentration. Mice were treated for 10 days at a low dose of SDPC intranasally administered 2.5 uL each nostril (5 μL total dose) for 0.5 mg/kg every other day assuming average mouse weight of 30 g (0.03 kg) (FIG. 3). After 10 days, dose was escalated to 2 mg/kg every other day for an additional 19 days (total treatment time […]). Doses 16-18 were administered daily. Non-invasive behavioral testing using novel object recognition (118) and Nesting behavior (114) were used to assess behavioral function. Deficits were expected in APPsw+ (Tg) mice and compared to wild type littermates of the same age (13-14 months). […]
# [4] = test system: APPsw+ mice; test: Open Field testing; format: in vivo; settings: 10 days intranasal low dose, following NOR testing; FIG. 4D
# Experimental: FIGS. 4A-4D. 10 days treatment with low dose SDPC. (A) After 10 days treatment (Tx) with low dose phosphatidylcholine (PC) containing docosahexaenoyl (22:6) and stearoyl (18:0) acyl chains, 18:0-22:6 PC; 1-stearoyl-2-docosahexaenoyl-sn-glycero-3-phosphocholine (CAS Number 59403-52-0; Synonyms: 1-octadecanoyl-2-(4Z,7Z,10Z,13Z,16Z,19Z-docosahexaenoyI)-sn-glycero-3-phosphocholine and PC(18:0/22:6(4Z,7Z,10Z,13Z,16Z,19Z))) (SDPC) intranasally, nesting score was assessed as described before (114). The number of nestlettes (from 3 initially placed in cage) was estimated and exact weight of remaining nestlettes was determined in grams (g) from initial 3 nestlettes (approximately 2 g). (B) Activity during novel object recognition (NOR) training was assessed after 10 days intranasal SDPC. Grooming behavior, free rearing, wall rearing and center crossing events are shown and were summed in total events. (C) Time spent with each identical object during NOR training. (D) Activity during Open Field testing 24 hours after NOR training (note, no difference in novel object discrimination (NOD) index was found. Standard error is shown for means of Saline treated APPsw+(control) (n=4); SDPC treated APPsw+ (n=5) and wild type receiving no treatment (n=4). Significance was determined for […] using Student's t-test. […]
# [5] = test system: APPsw+ mice; test: Novel object recognition (NOR) training and testing, activity and exploration; format: in vivo; settings: 10 days intranasal low dose
# [6] = target: T2, Aβ42-FAM bound lipids containing 22:6 (Homo sapiens, UniProt P05067); test: Competition of Aβ42-FAM binding to plate-bound 22:6 lipid; settings: competitor peptide 5×, 1 μM; FIG. 1C
# T2 construct: SensoLyte Fluorescent β-Amyloid1-42 Sampler Kit, Anaspec; purchased Anaspec
# Experimental: Scrambled Aβ or unlabeled Aβ42 peptides (Anaspec) were diluted to 100 μM as above and then diluted in SuperBlock Blocking buffer to 1 μM, incubated for 1 hour at room temperature. Plates were washed and FAM fluorescence was read as above. Lipid containing long chain polyunsaturated fatty acid 22:6, docosahexaenoic acid (DHA) and an amine containing headgroup, phosphatidylethanoloamine (PE) was bound to maleic anhydride activated plates which bind to free primary amine functional groups at neutral and alkaline pH. All binding and washing steps were done in PBS, PBST and SuperBlock PBS to maintain pH at 7.2. A control acyl chain lipid hypothesized not to bind to Aβ peptide was 18:0, stearic acid containing PE (di18:0). After lipids were bound and unreacted binding sites were blocked using SuperBlock, Aβ42 peptide fluorescently tagged with FAM (Anaspec) was incubated with lipid bound wells. […] The dissociation constant Kd was calculated to be 300 nM. Specific binding was calculated by subtracting background binding of di18:0 PE.
compound,measurement,setting,value
"CC/C=C\C/C=C\C/C=C\C/C=C\C/C=C\C/C=C\CCC(=O)O [DHA, docosahexaenoic acid]",pKd,[1]; read-out: dissociation constant Kd of Aβ binding to DHA,~6.52 and 6.52
"CC/C=C\C/C=C\C/C=C\C/C=C\C/C=C\C/C=C\CCC(=O)O[C@H](COC(=O)CCCCCCCCCCCCCCCCC)COP(=O)([O-])OCC[N+](C)(C)C [SDPC, 1-stearoyl-2-docosahexaenoyl-sn-glycero-3-phosphocholine]",discrimination of one displaced identical object (hippocampal function),"[2]; 30 days escalating dose, training day 2, FIG. 6A",no discrimination was determined
same,number of wall rears and total activity events,"[2]; 30 days intranasal escalated dose (to 2 mg/kg), SDPC vs saline treated APPsw+, FIG. 5",significant improvement
same,NOR deficits: time spent with a novel object,"[2]; 30 days intranasal escalated dose, FIG. 6",significant amelioration
same,novel object discrimination index (NOD index),"[2]; 30 days intranasal escalated dose, FIG. 6B",significant changes were not observed; also recorded: trend for amelioration
same,nesting behavior,[3],trend toward improvement; also recorded: non-significant trend for improvement
same,activity in the open field test,[4],continued improvement of activity level; also recorded: restored to the level of wild type non-treated mice
same,NOR discrimination (NOD index) 24 hours after training,[5],no discrimination was found; also recorded: no difference
same,"activity during NOR training (wall rearing, free rearing, total activity level)","[5]; vs saline treated APPsw+, FIG. 4B",trend toward improvement; also recorded: non-significant trend for improvement
same,exploration: time spent with identical objects during NOR training,[5]; FIG. 4C,trend toward improved exploratory behavior; also recorded: non-significant trend toward exploration activity
"CCCCCCCCCCCCCCCCCC(=O)OC[C@H](COP(=O)(O)OCCN)OC(=O)CCCCCCCCCCCCCCCCC [di18:0 PE, reference compound]",binding of Aβ42-FAM to plate-bound lipid,"[1]; FIGS. 1A and 1B, di18:0 at concentrations 10,000 pmol/well and below",very low binding activity
same,binding of Aβ42-FAM to plate-bound lipid at the highest concentrations,[1]; only at the highest concentrations of lipid,modest binding
unlabeled Aβ42 peptide: unlabeled Aβ42 peptide (Anaspec) used as competitor,competitive disruption of Aβ42-FAM binding to 22:6 lipid,[6],competitively disrupted

# Source: patent US20170354669A1, “DISRUPTION OF THE INTERACTION BETWEEN AMYLOID BETA PEPTIDE AND DIETARY LIPIDS” (The Trustees of Columbia University in the City of New York, priority 2016, published 2017)
